From article PMC12814168, “Fast, Bright, and Reversible Fluorescent Labeling of Rhodamine-Binding Proteins” (Journal of the American Chemical Society, 2025)

How the values were obtained:
[1] = Spectral properties: absolute quantum yield, extinction coefficient, brightness; type: physicochemical
Method: Serially fluorophore dilutions (0 – 3 μM) were prepared in activity buffer in presence or absence […]
Measurements were performed in 200 μL volumes in clear-bottom non-binding […]
recorded on the Spark20M microplate reader (Tecan). Following baseline correction, the absorbance was plotted against the dye concentration and the data were fitted linearly. Path […]
(§1) coefficients were calculated via the Lambert-Beer law (Equation 1).
Absolute quantum yields were determined at room temperature using a Hamamatsu Quantaurus-QY spectrometer (C11347 model). Rhodamine dyes (1 μM) were tested with and without excess […]
Samples were prepared in 800 μL glass vials
Quantum yield represent as mean ± standard deviation from three technical replicates. The brightness was thereafter calculated using Equation 5. […]

[2] = test system: SiR-tag; assay: Fluorescence emission increase (FI/FI0) of SiR upon binding to SiR-tag; type: biochemical; conditions: 50 nM dye, with vs without 20 μM protein
Method: The thermal stability of Rho-tag variants was assessed using nano differential scanning fluorimetry (nanoDSF) on a Prometheus NT48 (NanoTemper Technologies). Protein samples (100 µM in activity buffer) were subjected to a thermal gradient from 20° C to 95° C at 1 °C / min.
The intrinsic fluorescence ratio (350 / 330 nm) of tryptophan / tyrosine residues was monitored, and the melting temperature (TM) was determined as the inflection point of this ratio curve. Each sample was analyzed in technical duplicate (N=2), and results are reported as mean ± standard […]
Fluorescence emission spectra
To evaluate fluorescence turn-on or quenching (F I/FI0), rhodamine dyes (2 – 50 nM) were incubated with or without excess Rho-tag (20 μM) in activity buffer containing 0.5% BSA (w/v).
Measurements were performed in black 384-well plates (Greiner) using the Spark20M microplate reader (Tecan) in technical replicates.
FI/FI0 was defined as the ratio of fluorescence intensity with protein to that without at the emission […]
recorded on the Spark20M microplate reader (Tecan). Following baseline correction, the absorbance was plotted against the dye concentration and the data were fitted linearly. […]
as §1
Absolute quantum yields were determined at room temperature using a Hamamatsu Quantaurus-QY spectrometer (C11347 model). […]

[3] = target: T1, Rho-tag (Chlorobaculum tepidum, UniProt Q8KFZ1, A66M/D121K/D126E/E36V/E70D/F125Y/F62Y/G107D/G67E/H40T/K51V/M64F/N138A/Q25R/S152V/S33N/S65D/V17Q/V87I); assay: Fluorescence intensity titration of SiR with serial Rho-tag dilutions, 50 mM HEPES, 50 mM NaCl, pH 7.3 with BSA, 25 °C.; type: binding; conditions: SD, n = 3
T1 construct: gene CT0179; His10-TEV, recombinant from E. coli
T1 sequence (Q8KFZ1 entry or part of it with the stated changes): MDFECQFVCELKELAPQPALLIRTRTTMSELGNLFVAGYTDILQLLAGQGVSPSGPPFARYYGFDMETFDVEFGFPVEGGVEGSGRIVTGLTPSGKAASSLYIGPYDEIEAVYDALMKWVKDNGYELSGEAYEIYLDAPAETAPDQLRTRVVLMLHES
Method: electroporation buffer, aliquoted (12 x 50 µL) on ice, and used immediately for electroporation with 1–5 µg DNA precipitated DNA. Cells were transferred to pre-chilled 0.2 cm gap electroporation cuvettes (Bio-Rad), and electroporated using a Gene Pulser Xcell (0.54 kV, 25 µF, infinite resistance, exponential decay). Cells were recovered in 2 mL YPDS at 30 °C, shaking for 1 h and afterwards expanded in 100 mL SDCAA at 30 °C for 2 days.
YSD protein expression, staining and sorting
regions were amplified via KOD PCR reaction using primers containing unique barcodes (NGS adaptor ligation oligos, Eurofins Genomics) analyzed by NGS sequencing (Illumina technology, Eurofins Genomics). The NGS results were analyzed using a custom-build pipeline as described previously. […] Alternatively, plasmid DNA was transformation into E.cloni 10G and single colonies were analyzed by Sanger sequencing (Eurofins). […]
and 1 (fully bound dye). The dissociation constants KD were determined by fitting a single-site […]

[4] = target: T2, SiR-tag; assay: Fluorescence intensity titration of 20 nM SiR with serial protein dilutions, 50 mM HEPES, 50 mM NaCl, pH 7.3 with BSA, 25 °C, 4 independent measurements.; type: binding; conditions: read-out: K D (SiR), SiR-tag; SD, n = 4
T2 construct: 2 + PROSS8 background combined with P57M/F58Y/R60L and G63N/F64K/D65N/M66H; His10-TEV
Description: 4 Bioluminescent Rho-tag and far-red SiR-tag. A) Schematic representation of direct excitation (left) or bioluminescence (BRET, right) of Rho-tag/TMR. B) AlphaFold2 (AF2) model of RhoLuc (N-Rho-tag^1‑64-GSG-cpNLuc^67/68-GS-Rho-tag^67‑158-C). cpNLuc^67/68 was inserted into the 64/67 site of Rho-tag. Tertiary structures are represented as colored cartoons and surface. The TMR ligand presented as yellow sticks. 3-Methoxyfurimazine (3MF) was modeled into the structure by aligning a crystal structure of NLuc (PDB-ID7SNT) to the AF model and is represented as blue sticks. pLDDT: 93.88. C) Bioluminescence profile of RhoLuc (dark blue, insertion), NLuc-Rho-tag (light blue, terminal fusion), or NLuc (gray). […] The fluorescence emission spectra were recorded upon the addition of Nano-Glo substrate (Promega 1:1000). BRET ratio (in brackets) is given as I 593/I 459. […] The fluorescence emission spectrum of 50 nM dye was recorded in the presence and absence of 20 μM protein. […]
SGCAA medium was used for induction and cells were grown at 30 °C, 250 rpm for 20 h. […] Samples were filtered through 5 mL round-bottom tubes with cell strainer caps (Falcon) and analyzed directly by FACS. […]
PMT voltages were set based on negative controls (no protein expression). Gates were applied for FSC, SSC, and fluorescence; signals >10³ (bilirubin or rhodamine dyes) were considered positive, background ≤10². […]

[5] = with 20 µM Rho-tag (TMR, JF549) or SiR-tag (SiR, JF646)

## CN(C)c1ccc2c(c1)[Si](C)(C)c1cc(N(C)C)ccc1C21OC(=O)c2ccccc21 [SiR, silicon rhodamine]
[1]; HaloTag7-bound
  Absolute quantum yield Φ: 0.546 ± 0.018
  Brightness ε × Φ: 068 ± 1 M-1cm-1 × 103
  Extinction coefficient ε: 125 ± 15 M-1cm-1 × 103
[1]; buffer
  Brightness ε × Φ: 067 ± 2 M-1cm-1 × 103
  Extinction coefficient ε: 120 ± 22 M-1cm-1 × 103
[1]; buffer (unbound dye)
  Absolute quantum yield Φ: 0.562 ± 0.003
[1]; [5]
  Absolute quantum yield Φ: 0.649 ± 0.012
  Brightness ε × Φ: 105 ± 1 M-1cm-1 × 103
  Extinction coefficient ε: 162 ± 30 M-1cm-1 × 103
[2]
  Fluorescence increase FI/FI0 upon binding to SiR-tag: 13 fold
[3]
  Kd: 6.5 µM
[4]
  Kd: 0.048 µM
